Tested on: 782815-120-R-J1-PDC complex spheroid viability
Experiment: Anticancer human tumor 782815-120-R-J1-PDC patient-derived colon adenocarcinoma cell line growth inhibition [RAS]
Conditions: for IC50: curve of first compound; for viability, T/C: stronger effect = lower value
Outline: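 Multi-cell-type spheroids: tumor cells plus HUVEC endothelial cells and mesenchymal stem cells. RAS-pathway inhibitors were combined with targeted agents, each dosed in half-log steps down from clinical Cmax, or from 10 microM when Cmax was unknown.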

[1] = second compound 0.00316 µM, first compound 0.0316 µM
[2] = second compound 0.00316 µM, first compound 0.1 µM
[3] = second compound 0.01 µM, first compound 0.0316 µM
[4] = second compound 0.01 µM, first compound 0.1 µM
[5] = second compound 0.0316 µM, first compound 0.0316 µM
[6] = second compound 0.0316 µM, first compound 0.1 µM
[7] = second compound 0.1 µM, first compound 0.0316 µM
[8] = second compound 0.1 µM, first compound 0.1 µM
[9] = second compound 0.316 µM, first compound 0.0316 µM
[10] = second compound 0.316 µM, first compound 0.1 µM
[11] = second compound 1 µM, first compound 0.0316 µM
[12] = second compound 1 µM, first compound 0.1 µM
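Also: spheroids exposed to compounds for 7 days before reading.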
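For viability, T/C in this document: 100% = DMSO vehicle control viability.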

## CC(C)NCC(C(=O)N1CCN(c2ncnc3c2C(C)CC3O)CC1)c1ccc(Cl)cc1 (centres undefined) + C=CC(=O)N1CCN(c2nc(OCC3CCCN3C)nc3c(F)c(-c4nc(N)cc(C)c4C(F)(F)F)c(Cl)cc23)C(C)C1
Second compound 0.00316 µM
  IC50: > 10 µM
Second compound 0.01 µM
  IC50: > 10 µM
Second compound 0.0316 µM
  IC50: > 10 µM
Second compound 0.1 µM
  IC50: > 10 µM
Second compound 0.316 µM
  IC50: > 10 µM
Second compound 1 µM
  IC50: > 10 µM
[1]
  viability, T/C: 98.4%
[2]
  viability, T/C: 97%
Second compound 0.00316 µM, first compound 0.316 µM
  viability, T/C: 102%
Second compound 0.00316 µM, first compound 1 µM
  viability, T/C: 92%
Second compound 0.00316 µM, first compound 3.16 µM
  viability, T/C: 99%
Second compound 0.00316 µM, first compound 10 µM
  viability, T/C: 98.7%
[3]
  viability, T/C: 101%
[4]
  viability, T/C: 93.3%
Second compound 0.01 µM, first compound 0.316 µM
  viability, T/C: 91.1%
Second compound 0.01 µM, first compound 1 µM
  viability, T/C: 93.2%
Second compound 0.01 µM, first compound 3.16 µM
  viability, T/C: 101%
Second compound 0.01 µM, first compound 10 µM
  viability, T/C: 96.9%
[5]
  viability, T/C: 96.2%
[6]
  viability, T/C: 96.8%
Second compound 0.0316 µM, first compound 0.316 µM
  viability, T/C: 94.3%
Second compound 0.0316 µM, first compound 1 µM
  viability, T/C: 87.9%
Second compound 0.0316 µM, first compound 3.16 µM
  viability, T/C: 96.3%
Second compound 0.0316 µM, first compound 10 µM
  viability, T/C: 101%
[7]
  viability, T/C: 104%
[8]
  viability, T/C: 95.2%
Second compound 0.1 µM, first compound 0.316 µM
  viability, T/C: 96.4%
Second compound 0.1 µM, first compound 1 µM
  viability, T/C: 94.5%
Second compound 0.1 µM, first compound 3.16 µM
  viability, T/C: 95.9%
Second compound 0.1 µM, first compound 10 µM
  viability, T/C: 104%
[9]
  viability, T/C: 106%
[10]
  viability, T/C: 93.4%
Second compound 0.316 µM, first compound 0.316 µM
  viability, T/C: 93%
Second compound 0.316 µM, first compound 1 µM
  viability, T/C: 88.5%
Second compound 0.316 µM, first compound 3.16 µM
  viability, T/C: 96.7%
Second compound 0.316 µM, first compound 10 µM
  viability, T/C: 92.6%
[11]
  viability, T/C: 105%
[12]
  viability, T/C: 100%
Second compound 1 µM, first compound 0.316 µM
  viability, T/C: 92.5%
Second compound 1 µM, first compound 1 µM
  viability, T/C: 98.9%
Second compound 1 µM, first compound 3.16 µM
  viability, T/C: 103%
Second compound 1 µM, first compound 10 µM
  viability, T/C: 99.1%

## CC(C)n1nc(-c2ccc3oc(N)nc3c2)c2c(N)ncnc21 + C=CC(=O)N1CCN(c2nc(OCC3CCCN3C)nc3c(F)c(-c4nc(N)cc(C)c4C(F)(F)F)c(Cl)cc23)C(C)C1
Second compound 0.00316 µM
  IC50: > 0.1 µM
Second compound 0.01 µM
  IC50: > 0.1 µM
Second compound 0.0316 µM
  IC50: > 0.1 µM
Second compound 0.1 µM
  IC50: > 0.1 µM
Second compound 0.316 µM
  IC50: > 0.1 µM
Second compound 1 µM
  IC50: > 0.1 µM
Second compound 0.00316 µM, first compound 0.000316 µM
  viability, T/C: 101%
Second compound 0.00316 µM, first compound 0.001 µM
  viability, T/C: 101%
Second compound 0.00316 µM, first compound 0.00316 µM
  viability, T/C: 96.1%
Second compound 0.00316 µM, first compound 0.01 µM
  viability, T/C: 91.7%
[1]
  viability, T/C: 90.2%
[2]
  viability, T/C: 93.1%
Second compound 0.01 µM, first compound 0.000316 µM
  viability, T/C: 99.8%
Second compound 0.01 µM, first compound 0.001 µM
  viability, T/C: 95.9%
Second compound 0.01 µM, first compound 0.00316 µM
  viability, T/C: 100%
Second compound 0.01 µM, first compound 0.01 µM
  viability, T/C: 89.1%
[3]
  viability, T/C: 92.7%
[4]
  viability, T/C: 95.5%
Second compound 0.0316 µM, first compound 0.000316 µM
  viability, T/C: 101%
Second compound 0.0316 µM, first compound 0.001 µM
  viability, T/C: 102%
Second compound 0.0316 µM, first compound 0.00316 µM
  viability, T/C: 98.7%
Second compound 0.0316 µM, first compound 0.01 µM
  viability, T/C: 95.8%
[5]
  viability, T/C: 92.2%
[6]
  viability, T/C: 91.4%
Second compound 0.1 µM, first compound 0.000316 µM
  viability, T/C: 98.7%
Second compound 0.1 µM, first compound 0.001 µM
  viability, T/C: 102%
Second compound 0.1 µM, first compound 0.00316 µM
  viability, T/C: 91.3%
Second compound 0.1 µM, first compound 0.01 µM
  viability, T/C: 92.1%
[7]
  viability, T/C: 105%
[8]
  viability, T/C: 92.6%
Second compound 0.316 µM, first compound 0.000316 µM
  viability, T/C: 97.5%
Second compound 0.316 µM, first compound 0.001 µM
  viability, T/C: 105%
Second compound 0.316 µM, first compound 0.00316 µM
  viability, T/C: 95.1%
Second compound 0.316 µM, first compound 0.01 µM
  viability, T/C: 102%
[9]
  viability, T/C: 92.8%
[10]
  viability, T/C: 94.7%
Second compound 1 µM, first compound 0.000316 µM
  viability, T/C: 104%
Second compound 1 µM, first compound 0.001 µM
  viability, T/C: 104%
Second compound 1 µM, first compound 0.00316 µM
  viability, T/C: 91.5%
Second compound 1 µM, first compound 0.01 µM
  viability, T/C: 96.9%
[11]
  viability, T/C: 94.1%
[12]
  viability, T/C: 87.7%

Source: PubChem BioAssay AID2060887 (Molecular Pharmacology Branch, DTP, NCI, 2025)
